Measured values: ChEMBL document CHEMBL1201862, “PubChem BioAssay data set” (2004)
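Protocol summary: plate cells (96-well), add compound at 5 concentrations, incubate 48 h, interpolate endpoints linearly. The concentration for 50% growth inhibition is given as GI50.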 Calls of active or inactive are those of the source. Cut-off read from the data, not from the text of the source: active = GI50 up to about 1.1 µM and inactive = higher.

Key:
Assay in all cases: NCI anticancer screen, dose series, 48 h
[1] = tested on: MDA-N
[2] = tested on: HT-29
[3] = tested on: OVCAR-8
[4] = tested on: DU-145
[5] = tested on: HCC 2998
[6] = tested on: SNB-19
[7] = tested on: OVCAR-3
[8] = tested on: OVCAR-4
[9] = tested on: NCI/ADR-RES
[10] = tested on: TK-10
[11] = tested on: SF-295
[12] = tested on: UO-31
[13] = tested on: CAKI-1
[14] = tested on: OVCAR-5
[15] = tested on: UACC-62
[16] = tested on: IGROV-1
[17] = tested on: SW-620
[18] = tested on: U-251
[19] = tested on: UACC-257
[20] = tested on: RPMI-8226

Structure (SMILES)	GI50 [1]	GI50 [2]	GI50 [3]	GI50 [4]	GI50 [5]	GI50 [6]	GI50 [7]	GI50 [8]	GI50 [9]	GI50 [10]	GI50 [11]	GI50 [12]	GI50 [13]	GI50 [14]	GI50 [15]	GI50 [16]	GI50 [17]	GI50 [18]	GI50 [19]	GI50 [20]
COc1ccc(Cn2c3c(cc(OS(=O)(=O)C(F)(F)F)c2=O)Cc2ccccc2-3)cc1	12.9 µM (inactive)	> 50 µM (inactive)	13.3 µM (inactive)	20.2 µM (inactive)	11.7 µM (inactive)	19.1 µM (inactive)	9.53 µM (inactive)	19.3 µM (inactive)	2.29 µM (inactive)	22.3 µM (inactive)	18.9 µM (inactive)	7.33 µM (inactive)	20.9 µM (inactive)	20.3 µM (inactive)	10.5 µM (inactive)	22.5 µM (inactive)	10.3 µM (inactive)	19.2 µM (inactive)	11.9 µM (inactive)	32.8 µM (inactive)
COc1cc(C(=O)O)ccc1OS(=O)(=O)O	> 100 µM (inactive)	> 100 µM (inactive)	> 100 µM (inactive)	> 100 µM (inactive)	> 100 µM (inactive)	> 100 µM (inactive)	> 100 µM (inactive)	> 100 µM (inactive)	> 100 µM (inactive)	> 100 µM (inactive)	> 100 µM (inactive)	> 100 µM (inactive)	> 100 µM (inactive)	> 100 µM (inactive)	> 100 µM (inactive)	> 100 µM (inactive)	> 100 µM (inactive)	> 100 µM (inactive)	> 100 µM (inactive)	> 100 µM (inactive)
CC(C)OP(=O)(OC(C)C)C(C(F)(F)F)C(F)(F)F	> 100 µM (inactive)	> 100 µM (inactive)	> 100 µM (inactive)	> 100 µM (inactive)	> 100 µM (inactive)	> 100 µM (inactive)	> 100 µM (inactive)	> 100 µM (inactive)	> 100 µM (inactive)	> 100 µM (inactive)	> 100 µM (inactive)	> 100 µM (inactive)	> 100 µM (inactive)	> 100 µM (inactive)	> 100 µM (inactive)	> 100 µM (inactive)	> 100 µM (inactive)	> 100 µM (inactive)	> 100 µM (inactive)	> 100 µM (inactive)
NC(=O)N/N=C(\Cc1nc2ccc(Cl)cc2nc1O)C(=O)Nc1ccc(Cl)cc1Cl	> 100 µM (inactive)	> 100 µM (inactive)	> 100 µM (inactive)	> 100 µM (inactive)	> 100 µM (inactive)	> 100 µM (inactive)	> 100 µM (inactive)	> 100 µM (inactive)	> 100 µM (inactive)	> 100 µM (inactive)	> 100 µM (inactive)	> 100 µM (inactive)	> 100 µM (inactive)	> 100 µM (inactive)	> 100 µM (inactive)	81.5 µM (inactive)	> 100 µM (inactive)	> 100 µM (inactive)	> 100 µM (inactive)	> 100 µM (inactive)
O=[N+]([O-])O [NITRIC ACID]	> 100 µM (inactive)	> 100 µM (inactive)	> 100 µM (inactive)	> 100 µM (inactive)	> 100 µM (inactive)	> 100 µM (inactive)	> 100 µM (inactive)	> 100 µM (inactive)	> 100 µM (inactive)	> 100 µM (inactive)	> 100 µM (inactive)	> 100 µM (inactive)	> 100 µM (inactive)	> 100 µM (inactive)	> 100 µM (inactive)	> 100 µM (inactive)	> 100 µM (inactive)	> 100 µM (inactive)	> 100 µM (inactive)	> 100 µM (inactive)
Oc1ccc2ccccc2c1-c1nnc(CCCCCCCCc2nnc(-c3c(O)ccc4ccccc34)o2)o1	4.23 µM (inactive)	13.4 µM (inactive)	2.18 µM (inactive)	5.08 µM (inactive)	4.06 µM (inactive)	3.53 µM (inactive)	0.314 µM (active)	1.15 µM (inactive)	1.44 µM (inactive)	9.42 µM (inactive)	3.61 µM (inactive)	0.389 µM (active)	0.813 µM (active)	6.32 µM (inactive)	7.64 µM (inactive)	0.536 µM (active)	3.44 µM (inactive)	1.05 µM (active)	10.2 µM (inactive)	2.72 µM (inactive)
CC(=O)N(CCc1ccccc1)C(C#N)c1ccccc1 (stereo not given)	> 100 µM (inactive)	> 100 µM (inactive)	> 100 µM (inactive)	> 100 µM (inactive)	> 100 µM (inactive)	> 100 µM (inactive)	70.1 µM (inactive)	> 100 µM (inactive)	> 100 µM (inactive)	> 100 µM (inactive)	> 100 µM (inactive)	> 100 µM (inactive)	> 100 µM (inactive)	> 100 µM (inactive)	> 100 µM (inactive)	> 100 µM (inactive)	> 100 µM (inactive)	> 100 µM (inactive)	> 100 µM (inactive)	> 100 µM (inactive)
COc1ccc(CNC2=Nc3ccncc3S(=O)(=O)N2c2ccccc2)cc1	29.9 µM (inactive)	48.3 µM (inactive)	49.8 µM (inactive)	45.7 µM (inactive)	3.77 µM (inactive)	> 100 µM (inactive)	82.8 µM (inactive)	37.4 µM (inactive)	35.9 µM (inactive)	20.3 µM (inactive)	65 µM (inactive)	45.7 µM (inactive)	> 100 µM (inactive)	> 100 µM (inactive)	40.2 µM (inactive)	39.9 µM (inactive)	33 µM (inactive)	68.1 µM (inactive)	37.4 µM (inactive)	16.4 µM (inactive)
CCCCCC(O)(CCCCC)CCCCCCCCC1=C(O)C(=O)c2ccccc2C1=O	10.5 µM (inactive)	14.1 µM (inactive)	7.19 µM (inactive)	8.53 µM (inactive)	16.6 µM (inactive)	5.75 µM (inactive)	14.3 µM (inactive)	9.79 µM (inactive)	4.4 µM (inactive)	15 µM (inactive)	7.91 µM (inactive)	10.3 µM (inactive)	12 µM (inactive)	20.5 µM (inactive)	8.17 µM (inactive)	6.08 µM (inactive)	7.46 µM (inactive)	7.73 µM (inactive)	12.6 µM (inactive)	3.38 µM (inactive)
Cc1ccnc2[nH]c(-c3ccccc3)cc(=O)c12	0.0011 µM (active)	0.00361 µM (active)	0.027 µM (active)	0.0313 µM (active)	0.037 µM (active)	0.0233 µM (active)	0.00583 µM (active)	68.7 µM (inactive)	0.00451 µM (active)	0.106 µM (active)	0.00309 µM (active)	0.0348 µM (active)	0.0116 µM (active)	0.643 µM (active)	0.00535 µM (active)	0.0726 µM (active)	0.00421 µM (active)	0.00552 µM (active)	0.0113 µM (active)	0.00731 µM (active)
